Assay results from PubChem BioAssay (NCI).
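Values below derive from 48-hour exposures of cells grown in 96-well plates, with endpoints linearly interpolated between the two concentrations bracketing the appropriate inhibition level. At the GI50, growth is halved. The concentration for full growth arrest is given as TGI.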

Columns and labels:
Test in all cases: NCI anticancer screen, dose series, 48 h
T-47D breast = tested on: T-47D breast
SK-MEL-2 melanoma = tested on: SK-MEL-2 melanoma
RPMI-8226 leukemia = tested on: RPMI-8226 leukemia
UACC-62 melanoma = tested on: UACC-62 melanoma
MOLT-4 leukemia = tested on: MOLT-4 leukemia
MDA-MB-468 breast = tested on: MDA-MB-468 breast
A498 renal = tested on: A498 renal
OVCAR-5 ovarian = tested on: OVCAR-5 ovarian
SK-OV-3 ovarian = tested on: SK-OV-3 ovarian
MCF7 breast = tested on: MCF7 breast
CCRF-CEM leukemia = tested on: CCRF-CEM leukemia
MDA-MB-231 breast = tested on: MDA-MB-231 breast
NCI-H23 lung = tested on: NCI-H23 lung
SNB-75 CNS = tested on: SNB-75 CNS
COLO 205 colon = tested on: COLO 205 colon
K-562 leukemia = tested on: K-562 leukemia
SNB-19 CNS = tested on: SNB-19 CNS
NCI-H522 lung = tested on: NCI-H522 lung
OVCAR-3 ovarian = tested on: OVCAR-3 ovarian
SW-620 colon = tested on: SW-620 colon
HOP-62 NSCLC = tested on: HOP-62 NSCLC
BT-549 breast = tested on: BT-549 breast
HS 578T breast = tested on: HS 578T breast
OVCAR-8 ovarian = tested on: OVCAR-8 ovarian
HCT-15 colon = tested on: HCT-15 colon
SF-295 CNS = tested on: SF-295 CNS
SK-MEL-5 melanoma = tested on: SK-MEL-5 melanoma
DU-145 prostate = tested on: DU-145 prostate
IGROV1 ovarian = tested on: IGROV1 ovarian
HT29 colon = tested on: HT29 colon

Q: Which GI50 (T-47D breast) does the source give for `CC1(C)CC[C@]2(C(=O)Nc3ccccc3)CC[C@]3(C)C(=CC[C@@H]4[C@@]5(C)CC[C@H](N)C(C)(C)[C@@H]5CC[C@]43C)[C@H]2C1` here?
A: 14.9 µM

Q: What about the TGI (T-47D breast) of the same molecule?
A: 34.7 µM

Q: And the GI50 (SK-MEL-2 melanoma)?
A: 17.1 µM

Q: What about the TGI (SK-MEL-2 melanoma) of the same molecule?
A: 32.3 µM

Q: What about the GI50 (RPMI-8226 leukemia) of the same molecule?
A: 19 µM

Q: And the TGI (RPMI-8226 leukemia)?
A: 80 µM

Q: And the GI50 (UACC-62 melanoma)?
A: 16.7 µM

Q: What about the TGI (UACC-62 melanoma) of the same molecule?
A: 30.6 µM

Q: What about the GI50 (MOLT-4 leukemia) of the same molecule?
A: 15.3 µM

Q: And the TGI (MOLT-4 leukemia)?
A: 42 µM

Q: What about the GI50 (MDA-MB-468 breast) of the same molecule?
A: 13.3 µM

Q: And the TGI (MDA-MB-468 breast)?
A: 28.1 µM

Q: And the GI50 (A498 renal)?
A: 13.2 µM

Q: And the TGI (A498 renal)?
A: 27.1 µM

Q: And the GI50 (OVCAR-5 ovarian)?
A: 16.2 µM

Q: What about the TGI (OVCAR-5 ovarian) of the same molecule?
A: 30 µM

Q: And the GI50 (SK-OV-3 ovarian)?
A: 17.2 µM

Q: What about the TGI (SK-OV-3 ovarian) of the same molecule?
A: 33.6 µM

Q: What about the GI50 (MCF7 breast) of the same molecule?
A: 3.51 µM

Q: What about the TGI (MCF7 breast) of the same molecule?
A: 14.7 µM

Q: And the GI50 (CCRF-CEM leukemia)?
A: 14.6 µM

Q: And the TGI (CCRF-CEM leukemia)?
A: 34.5 µM

Q: What about the GI50 (MDA-MB-231 breast) of the same molecule?
A: 16.1 µM

Q: And the TGI (MDA-MB-231 breast)?
A: 30 µM

Q: And the GI50 (NCI-H23 lung)?
A: 16.8 µM

Q: And the TGI (NCI-H23 lung)?
A: 31.5 µM

Q: And the GI50 (SNB-75 CNS)?
A: 12.2 µM

Q: What about the TGI (SNB-75 CNS) of the same molecule?
A: 25.5 µM

Q: And the GI50 (COLO 205 colon)?
A: 15.6 µM

Q: What about the TGI (COLO 205 colon) of the same molecule?
A: 35.7 µM

Q: What about the GI50 (K-562 leukemia) of the same molecule?
A: 4.07 µM

Q: And the TGI (K-562 leukemia)?
A: > 100 µM

Q: And the GI50 (SNB-19 CNS)?
A: 16.4 µM

Q: What about the TGI (SNB-19 CNS) of the same molecule?
A: 30.6 µM

Q: And the GI50 (NCI-H522 lung)?
A: 16.2 µM

Q: And the TGI (NCI-H522 lung)?
A: 32.4 µM

Q: And the GI50 (OVCAR-3 ovarian)?
A: 13.2 µM

Q: What about the TGI (OVCAR-3 ovarian) of the same molecule?
A: 26.6 µM

Q: And the GI50 (SW-620 colon)?
A: 5.47 µM

Q: And the TGI (SW-620 colon)?
A: 20.3 µM

Q: And the GI50 (HOP-62 NSCLC)?
A: 15.8 µM

Q: And the TGI (HOP-62 NSCLC)?
A: 32.4 µM

Q: And the GI50 (BT-549 breast)?
A: 18.3 µM

Q: And the TGI (BT-549 breast)?
A: 32.9 µM

Q: What about the GI50 (HS 578T breast) of the same molecule?
A: 16.2 µM

Q: What about the TGI (HS 578T breast) of the same molecule?
A: 35.2 µM

Q: And the GI50 (OVCAR-8 ovarian)?
A: 18.2 µM

Q: And the TGI (OVCAR-8 ovarian)?
A: 38.3 µM

Q: What about the GI50 (HCT-15 colon) of the same molecule?
A: 13.6 µM

Q: And the TGI (HCT-15 colon)?
A: 27.9 µM

Q: And the GI50 (SF-295 CNS)?
A: 15.6 µM

Q: What about the TGI (SF-295 CNS) of the same molecule?
A: 30.4 µM

Q: What about the GI50 (SK-MEL-5 melanoma) of the same molecule?
A: 15.5 µM

Q: What about the TGI (SK-MEL-5 melanoma) of the same molecule?
A: 29 µM

Q: What about the GI50 (DU-145 prostate) of the same molecule?
A: 16.1 µM

Q: What about the TGI (DU-145 prostate) of the same molecule?
A: 30.6 µM

Q: And the GI50 (IGROV1 ovarian)?
A: 15.8 µM

Q: And the TGI (IGROV1 ovarian)?
A: 30.2 µM

Q: And the GI50 (HT29 colon)?
A: 17.5 µM
